From US10670605B2, “Cysteine reactive probes and uses thereof” (The Scripps Research Institute, priority 2015, dated 2020)

Legend:
Test in all cases: Competitive isoTOP-ABPP, cell lysates
Type in all cases: binding
[1] = target: T1, ACAT1 C126 (P24752) (Homo sapiens, UniProt P24752)
T1 sequence (P24752 34-427): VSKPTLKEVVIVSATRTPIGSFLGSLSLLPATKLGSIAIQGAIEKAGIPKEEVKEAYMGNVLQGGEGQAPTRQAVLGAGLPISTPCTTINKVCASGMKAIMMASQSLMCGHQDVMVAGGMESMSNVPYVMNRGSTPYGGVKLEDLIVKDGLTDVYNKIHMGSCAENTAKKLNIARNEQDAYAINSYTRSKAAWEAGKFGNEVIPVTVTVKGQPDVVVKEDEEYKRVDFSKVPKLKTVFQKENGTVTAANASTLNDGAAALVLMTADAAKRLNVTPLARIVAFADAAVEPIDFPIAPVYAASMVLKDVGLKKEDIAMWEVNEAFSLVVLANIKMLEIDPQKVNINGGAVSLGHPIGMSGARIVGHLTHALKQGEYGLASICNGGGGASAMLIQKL

[2] = target: T2, ACAT1 C196 (P24752) (Homo sapiens, UniProt P24752); details: for isoTOP-ABPP reactivity ratio, P24752_C196 / isoTOP-ABPP reactivity profile ratio, P24752_C196: 500 μm
T2 sequence (P24752 34-427): T1 sequence (P24752 34-427)

[3] = target: T3, ACAT1 C413 (P24752) (Homo sapiens, UniProt P24752); details: for isoTOP-ABPP reactivity ratio, P24752_C413 / isoTOP-ABPP reactivity profile ratio, P24752_C413: 500 μm
T3 sequence (P24752 34-427): T1 sequence (P24752 34-427)

[4] = target: T4, UCHL3 C95 (P15374) (Homo sapiens, UniProt P15374)
T4 sequence (P15374 1-230): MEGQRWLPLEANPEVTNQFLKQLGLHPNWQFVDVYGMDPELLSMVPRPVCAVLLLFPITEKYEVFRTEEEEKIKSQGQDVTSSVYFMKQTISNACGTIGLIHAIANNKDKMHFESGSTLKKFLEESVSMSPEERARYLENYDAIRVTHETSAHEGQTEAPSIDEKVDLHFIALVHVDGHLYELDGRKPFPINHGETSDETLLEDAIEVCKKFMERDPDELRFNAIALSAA

[5] = target: T5, PCK2 C306 (Q16822) (Homo sapiens, UniProt Q16822)
T5 sequence (Q16822 33-640): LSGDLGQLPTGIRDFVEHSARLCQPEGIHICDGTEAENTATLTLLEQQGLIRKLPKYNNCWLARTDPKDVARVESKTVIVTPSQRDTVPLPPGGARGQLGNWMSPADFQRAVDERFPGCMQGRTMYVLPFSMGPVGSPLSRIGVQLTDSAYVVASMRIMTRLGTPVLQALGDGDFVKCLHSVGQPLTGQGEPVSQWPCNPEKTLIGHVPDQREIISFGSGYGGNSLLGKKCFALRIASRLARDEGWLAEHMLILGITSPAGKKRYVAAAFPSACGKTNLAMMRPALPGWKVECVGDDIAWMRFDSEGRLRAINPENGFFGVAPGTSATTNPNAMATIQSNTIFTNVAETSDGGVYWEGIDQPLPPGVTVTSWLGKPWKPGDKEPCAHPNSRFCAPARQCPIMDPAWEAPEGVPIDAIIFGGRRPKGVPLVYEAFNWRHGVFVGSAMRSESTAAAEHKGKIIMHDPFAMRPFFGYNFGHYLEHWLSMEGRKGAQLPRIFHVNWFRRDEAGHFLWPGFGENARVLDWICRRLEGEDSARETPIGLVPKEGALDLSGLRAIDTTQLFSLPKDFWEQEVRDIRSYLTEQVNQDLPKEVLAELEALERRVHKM

[6] = target: T6, UBE2S C118 (Q16763) (Homo sapiens, UniProt Q16763)
T6 sequence (Q16763 1-222): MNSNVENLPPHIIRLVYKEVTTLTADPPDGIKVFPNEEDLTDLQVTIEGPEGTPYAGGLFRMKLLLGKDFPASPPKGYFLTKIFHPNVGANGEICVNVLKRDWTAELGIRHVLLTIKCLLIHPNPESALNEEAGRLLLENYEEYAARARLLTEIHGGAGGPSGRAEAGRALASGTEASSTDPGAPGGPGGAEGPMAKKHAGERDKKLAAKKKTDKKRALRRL

[7] = target: SMARCC2 C145 (Q8TAQ2) (Homo sapiens, UniProt Q8TAQ2); details: for isoTOP-ABPP reactivity ratio, Q8TAQ2_C145 / isoTOP-ABPP reactivity profile ratio, Q8TAQ2_C145: 500 μm
Chain of SMARCC2 C145 (Q8TAQ2) (Q8TAQ2 whole entry): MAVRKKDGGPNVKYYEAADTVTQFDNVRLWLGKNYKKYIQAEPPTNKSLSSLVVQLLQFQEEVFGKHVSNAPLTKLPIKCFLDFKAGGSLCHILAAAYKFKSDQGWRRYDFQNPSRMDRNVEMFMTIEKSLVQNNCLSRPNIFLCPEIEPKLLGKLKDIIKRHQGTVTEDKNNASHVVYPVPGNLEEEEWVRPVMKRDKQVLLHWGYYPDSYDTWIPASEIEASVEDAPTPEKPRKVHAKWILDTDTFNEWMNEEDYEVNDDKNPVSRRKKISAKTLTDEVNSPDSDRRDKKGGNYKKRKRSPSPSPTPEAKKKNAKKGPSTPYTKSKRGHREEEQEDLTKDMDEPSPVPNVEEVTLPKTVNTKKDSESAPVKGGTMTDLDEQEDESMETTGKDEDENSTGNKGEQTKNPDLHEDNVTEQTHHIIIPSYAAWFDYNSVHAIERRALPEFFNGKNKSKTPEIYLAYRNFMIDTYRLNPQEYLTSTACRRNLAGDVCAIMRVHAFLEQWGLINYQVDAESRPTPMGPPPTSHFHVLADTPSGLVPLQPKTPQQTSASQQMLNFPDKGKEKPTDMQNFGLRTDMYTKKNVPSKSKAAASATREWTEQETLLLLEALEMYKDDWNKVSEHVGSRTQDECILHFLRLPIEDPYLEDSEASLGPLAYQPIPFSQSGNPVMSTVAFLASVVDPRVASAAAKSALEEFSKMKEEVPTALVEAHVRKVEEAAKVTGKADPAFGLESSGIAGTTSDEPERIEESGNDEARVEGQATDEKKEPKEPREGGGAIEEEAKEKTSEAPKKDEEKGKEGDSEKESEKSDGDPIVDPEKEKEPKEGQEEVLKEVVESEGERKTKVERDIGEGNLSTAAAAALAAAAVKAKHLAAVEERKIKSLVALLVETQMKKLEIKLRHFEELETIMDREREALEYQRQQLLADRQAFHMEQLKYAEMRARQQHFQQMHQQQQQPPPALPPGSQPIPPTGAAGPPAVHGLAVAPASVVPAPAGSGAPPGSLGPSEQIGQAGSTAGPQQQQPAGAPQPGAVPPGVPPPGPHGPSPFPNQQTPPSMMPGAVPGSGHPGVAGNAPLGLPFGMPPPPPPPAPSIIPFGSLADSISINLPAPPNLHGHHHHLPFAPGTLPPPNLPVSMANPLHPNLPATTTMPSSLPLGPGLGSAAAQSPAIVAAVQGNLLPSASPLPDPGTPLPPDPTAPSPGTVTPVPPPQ

For `CC(C)(C)c1cc(NC(=O)CCl)on1` [compound 32], the “isoTOP-ABPP reactivity ratio, P24752_C126” value ([1]; 500 μm, in-vitro_ramos) was 8.6, the “isoTOP-ABPP reactivity ratio, P24752_C126” value ([1]; 500 μm, in-vitro_ramos_231) was 7.3 and the “isoTOP-ABPP reactivity ratio, P24752_C196” value ([2]; in-vitro_ramos) was 2.0. For the same compound, the “isoTOP-ABPP reactivity ratio, P24752_C196” value ([2]; in-vitro_ramos_231) was 2.3, the “isoTOP-ABPP reactivity ratio, P24752_C413” value ([3]; in-vitro_ramos) was 4.1 and the “isoTOP-ABPP reactivity ratio, P24752_C413” value ([3]; in-vitro_ramos_231) was 6.8. The “isoTOP-ABPP reactivity ratio, P15374_C95” value ([4]; 500 μm, in-vitro_ramos) was 1.0, the “isoTOP-ABPP reactivity ratio, P15374_C95” value ([4]; 500 μm, in-vitro_ramos_231) was 1.2 and the “isoTOP-ABPP reactivity ratio, Q16822_C306” value ([5]; 500 μm, in-vitro_ramos_231) was 3.2. For the same compound, the “isoTOP-ABPP reactivity ratio, Q16763_C118” value ([6]; 500 μm, in-vitro_ramos) was 1.1, the “isoTOP-ABPP reactivity ratio, Q16763_C118” value ([6]; 500 μm, in-vitro_ramos_231) was 1.1 and the “isoTOP-ABPP reactivity ratio, Q8TAQ2_C145” value ([7]; in-vitro_ramos) was 20.0. The “isoTOP-ABPP reactivity ratio, Q8TAQ2_C145” value ([7]; in-vitro_ramos_231) was 20.0.
For `O=C(CCl)Nc1ccc(-c2ccccc2)cc1` [compound 52], the “isoTOP-ABPP reactivity profile ratio, P24752_C126” value ([1]; 500 μm, in-vitro_ramos_231) was 1.3, the “isoTOP-ABPP reactivity profile ratio, P24752_C196” value ([2]; in-vitro_ramos) was 1.5 and the “isoTOP-ABPP reactivity profile ratio, P24752_C196” value ([2]; in-vitro_ramos_231) was 1.3. The “isoTOP-ABPP reactivity profile ratio, P24752_C413” value ([3]; in-vitro_ramos) was 1.5, the “isoTOP-ABPP reactivity profile ratio, P24752_C413” value ([3]; in-vitro_ramos_231) was 1.9 and the “isoTOP-ABPP reactivity profile ratio, P15374_C95” value ([4]; 500 μm, in-vitro_ramos_231) was 1.2. The “isoTOP-ABPP reactivity profile ratio, Q16822_C306” value ([5]; 500 μm, in-vitro_ramos) was 1.6, the “isoTOP-ABPP reactivity profile ratio, Q16822_C306” value ([5]; 500 μm, in-vitro_ramos_231) was 1.3 and the “isoTOP-ABPP reactivity profile ratio, Q16763_C118” value ([6]; 500 μm, in-vitro_ramos_231) was 1.2. The “isoTOP-ABPP reactivity profile ratio, Q8TAQ2_C145” value ([7]; in-vitro_ramos) was 1.8 and the “isoTOP-ABPP reactivity profile ratio, Q8TAQ2_C145” value ([7]; in-vitro_ramos_231) was 0.9.
In the case of `O=C(CCl)NC12CC3CC(CC(C3)C1)C2` [compound 21], the “isoTOP-ABPP ratio (reactivity profile), P24752_C126” value ([1]; 500 μm in-vitro ramos) is reported as 1.4, the “isoTOP-ABPP ratio (reactivity profile), P24752_C126” value ([1]; 500 μm in-vitro ramos_231) is reported as 1.2 and the “isoTOP-ABPP ratio (reactivity profile), P24752_C196” value ([2]; 500 μm in-vitro ramos) is reported as 1.1. For the same compound, the “isoTOP-ABPP ratio (reactivity profile), P24752_C196” value ([2]; 500 μm in-vitro ramos_231) was 1.0, the “isoTOP-ABPP ratio (reactivity profile), P24752_C413” value ([3]; 500 μm in-vitro ramos) was 1.4 and the “isoTOP-ABPP ratio (reactivity profile), P24752_C413” value ([3]; 500 μm in-vitro ramos_231) was 1.4. For the same compound, the “isoTOP-ABPP ratio (reactivity profile), P15374_C95” value ([4]; 500 μm in-vitro ramos_231) was 1.1, the “isoTOP-ABPP ratio (reactivity profile), Q16822_C306” value ([5]; 500 μm in-vitro ramos) was 2.0 and the “isoTOP-ABPP ratio (reactivity profile), Q16822_C306” value ([5]; 500 μm in-vitro ramos_231) was 1.2. For the same compound, the “isoTOP-ABPP ratio (reactivity profile), Q16763_C118” value ([6]; 500 μm in-vitro ramos_231) was 0.9 and the “isoTOP-ABPP ratio (reactivity profile), Q8TAQ2_C145” value ([7]; 500 μm in-vitro ramos_231) was 1.2.
